Assay results as given in BindingDB's records for doi:10.1016/j.chembiol.2006.06.007 (University of Wisconsin-Madison, 2006).

Assays:
Assay in all cases: High-throughput FP Assay
[1] = molecular target: T1, UDP-galactopyranose mutase (Klebsiella pneumoniae, UniProt Q762K7)
[2] = molecular target: T2, UDP-galactopyranose mutase (Mycobacterium tuberculosis (strain ATCC 25618 / H37Rv), UniProt P9WIQ1)
[3] = molecular target: T2, UDP-galactopyranose mutase; remark: listed apart in the source
Description: (§1) To access the ability of compounds to inhibit the catalytic activity of UGM, an HPLC assay was employed. Inhibition constants were determined by monitoring UGM activity at a single substrate concentration while varying inhibitor concentration.

[4] = molecular target: T1, UDP-galactopyranose mutase; remark: listed apart in the source
Description: as §1

T2 sequence (P9WIQ1 whole entry): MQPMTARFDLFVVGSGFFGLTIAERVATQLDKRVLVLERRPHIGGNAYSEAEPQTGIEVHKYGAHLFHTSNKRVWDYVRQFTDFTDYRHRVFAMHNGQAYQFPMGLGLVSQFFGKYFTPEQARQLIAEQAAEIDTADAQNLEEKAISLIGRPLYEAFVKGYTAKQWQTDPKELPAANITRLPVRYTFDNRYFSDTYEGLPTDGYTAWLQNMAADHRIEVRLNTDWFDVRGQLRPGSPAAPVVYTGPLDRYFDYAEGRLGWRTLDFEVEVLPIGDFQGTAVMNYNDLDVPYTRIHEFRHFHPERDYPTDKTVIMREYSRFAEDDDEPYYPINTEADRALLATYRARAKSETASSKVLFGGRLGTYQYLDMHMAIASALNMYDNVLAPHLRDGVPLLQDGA
T1 sequence (Q762K7 whole entry): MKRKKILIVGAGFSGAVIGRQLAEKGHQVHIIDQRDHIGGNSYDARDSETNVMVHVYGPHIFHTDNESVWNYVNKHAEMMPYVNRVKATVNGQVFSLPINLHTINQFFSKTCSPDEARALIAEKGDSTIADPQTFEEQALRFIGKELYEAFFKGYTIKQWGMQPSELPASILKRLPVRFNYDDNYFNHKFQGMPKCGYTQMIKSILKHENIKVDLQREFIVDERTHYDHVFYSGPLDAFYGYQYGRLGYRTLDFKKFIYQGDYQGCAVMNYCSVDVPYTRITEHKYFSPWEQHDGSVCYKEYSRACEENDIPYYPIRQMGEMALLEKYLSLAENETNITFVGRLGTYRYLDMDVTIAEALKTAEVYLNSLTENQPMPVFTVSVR

| Structure (SMILES) | Kd [1] [µM] | Kd [2] [µM] | IC50 [3] [µM] | IC50 [4] [µM] |
| --- | --- | --- | --- | --- |
| CC(C(=O)O)N1C(=O)/C(=C2/C(=O)Nc3ccccc32)SC1=S (stereo unspecified) [Thiazolidinone core, 19] | > 33 | > 330 |  |  |
| NS(=O)(=O)c1ccc(N2N=C(C(F)(F)F)/C(=C/c3ccc(-c4ccc5c(c4)C(=O)NC5=O)o3)C2=O)cc1 [Pyrazol analog, 2] | 1.5 |  |  |  |
| O=C(O)N1C(=O)/C(=C\c2ccccc2)SC1=S [Thiazolidinone core, 31] | > 33 | > 330 |  |  |
| CCOC(=O)c1cc(-c2ccc(/C=C3\C(=O)N(c4ccc(S(N)(=O)=O)cc4)N=C3C(F)(F)F)o2)ccc1Cl [Pyrazol analog, 4] | 6.7 |  |  |  |
| CCOC(=O)c1ccc(-c2ccc(/C=C3\C(=O)N(c4ccc(S(N)(=O)=O)cc4)N=C3C(F)(F)F)o2)cc1 [Pyrazol analog, 3] | 3.1 |  |  |  |
| O=C1Nc2ccc([N+](=O)[O-])cc2/C1=C1/SC(=S)N(C(Cc2ccccc2)C(=O)O)C1=O (stereo unspecified) [Thiazolidinone core, 30] | 5.7 | 10 | > 100 |  |
| O=C(O)C(Cc1ccccc1)N1C(=O)/C(=C/c2cccc(I)c2)SC1=S (stereo unspecified) [Thiazolidinone core, 22] | 6.3 | 6 | 41 |  |
| O=C(O)C(Cc1ccc(O)cc1)N1C(=O)/C(=C\c2cccc(Br)c2)SC1=S (stereo unspecified) [Thiazolidinone core, 17] | > 11.2 | > 33 |  |  |
| O=C(O)C(Cc1ccccc1)N1C(=O)/C(=C\c2cccc(Br)c2)SC1=S (stereo unspecified) [Thiazolidinone core, 6] | 9.4 | 12 | 65 | 1.6 |
| O=C(O)[C@H](Cc1ccccc1)N1C(=O)/C(=C/c2ccc(Br)cc2)SC1=S [Thiazolidinone core, 24] | > 33 | 9.3 | 35 |  |
| O=C(O)C(Cc1ccccc1)N1C(=O)/C(=C/c2cccc(Cl)c2)SC1=S (stereo unspecified) [Thiazolidinone core, 21] | 21.3 | 16 | 49 |  |
| O=C1N/C(=N\S(=O)(=O)c2ccccc2)S/C1=C1/C(=O)Nc2ccc([N+](=O)[O-])cc21 [Thiazolidinone core, 5] | 4 |  |  | 17 |
| O=C(O)C(Cc1ccccc1)N1C(=O)/C(=C\c2cccc([N+](=O)[O-])c2)SC1=S (stereo unspecified) [Thiazolidinone core, 26] | > 33 | > 33 |  |  |
| O=C(O)C(Cc1ccccc1)N1C(=O)/C(=C/c2cccc(Br)c2)SC1=S (stereo unspecified) [Thiazolidinone core, 15] | > 33 | > 33 |  |  |
| COc1cccc(/C=C2/SC(=S)N(C(Cc3ccccc3)C(=O)O)C2=O)c1 (stereo unspecified) [Thiazolidinone core, 28] | > 33 | > 33 |  |  |
| O=C(O)C(Cc1ccccc1)N1C(=O)/C(=C\c2ccccc2Br)SC1=S (stereo unspecified) [Thiazolidinone core, 25] | > 33 | > 33 |  |  |
| O=C(O)C(Cc1ccccc1)N1C(=O)/C(=C\c2cccc(F)c2)SC1=S (stereo unspecified) [Thiazolidinone core, 23] | > 33 | > 33 |  |  |
| O=C1Nc2ccccc2/C1=C1/SC(=S)N(C(Cc2ccc(O)cc2)C(=O)O)C1=O (stereo unspecified) [Thiazolidinone core, 20] | 14.1 | > 33 |  |  |
| O=C(O)CN1C(=O)/C(=C2/C(=O)Nc3ccccc32)SC1=S [Thiazolidinone core, 18] | > 33 | > 330 |  |  |
| O=C(O)c1cc(NC(=S)NCCCCCCOP(=O)(O)OP(=O)(O)OCC2OC(n3ccc(=O)[nH]c3=O)C(O)C2O)ccc1-c1c2ccc(=O)cc-2oc2cc(O)ccc12 (stereo unspecified) [Fluorescent Probe 1] | 0.1 | 0.16 | 5.7 |  |
| O=C(O)C(Cc1ccccc1)N1C(=O)/C(=C\c2ccccc2)SC1=S (stereo unspecified) [Thiazolidinone core, 29] | > 33 | > 33 |  |  |
| O=C1c2cccc3c([N+](=O)[O-])ccc(c23)C(=O)N1Cc1cccnc1 [Pyridin analog, 11] |  | 8 |  |  |
| Cc1cccc(/C=C2/SC(=S)N(C(Cc3ccccc3)C(=O)O)C2=O)c1 (stereo unspecified) [Thiazolidinone core, 27] | > 33 | > 33 |  |  |
| O=c1/c(=C/c2cc([N+](=O)[O-])c(O)cc2Cl)sc2nc3ccccc3n12 [Thiazolidinone core, 10] |  | 5.3 | 0.028 | 4 |
| CC(C(=O)O)N1C(=O)/C(=C\c2cccc(Br)c2)SC1=S (stereo unspecified) [Thiazolidinone core, 16] | > 33 | > 330 |  |  |
| O=C1Nc2ccccc2/C1=C1/SC(=S)N(C(Cc2ccccc2)C(=O)O)C1=O (stereo unspecified) [Thiazolidinone core, 8] | 10.7 |  |  | 93 |
